Source: patent publication US20180136242A1 (Autotelic LLC, priority 2014, published 2018)

What was measured:
[1] = tested on: 3C6 anti TAXOL IgG2a,k antibody; assay: Paclitaxel antibody cross-reactivity, IC50 towards taxanes (3C6); type: binding, mouse; conditions: antibody 3C6; read-out: IC50 towards taxane, 3C6
Description: (§1) The antibodies of the invention were generated by immunizing mice with either TAXOL® or baccatin conjugated to KLH. The antibodies are summarized as: 3C6 anti TAXOL® IgG2a,k, 3H5 anti-baccatin III IgG1, 8A10 anti-taxane IgG2a. Cross-reactivity profile of 3C6, 3H5, and 8A10 antibodies are shown by their IC50 values towards various taxanes in Table 1.

[2] = tested on: 3H5 anti-baccatin III IgG1 antibody; assay: Paclitaxel antibody cross-reactivity, IC50 towards taxanes (3H5); type: binding, mouse; conditions: antibody 3H5; read-out: IC50 towards taxane, 3H5
Description: as §1

[3] = tested on: 8A10 anti-taxane IgG2a antibody; assay: Paclitaxel antibody cross-reactivity, IC50 towards taxanes (8A10); type: binding, mouse; conditions: antibody 8A10
Description: as §1

BSA-paclitaxel antigen = BSA-paclitaxel antigen (Bos taurus, UniProt P02769); assay: Direct binding ELISA of intact IgGs to BSA-paclitaxel antigen (FIG. 4); conditions: read-out: apparent Kd
Sequence of BSA-paclitaxel antigen (P02769 25-607): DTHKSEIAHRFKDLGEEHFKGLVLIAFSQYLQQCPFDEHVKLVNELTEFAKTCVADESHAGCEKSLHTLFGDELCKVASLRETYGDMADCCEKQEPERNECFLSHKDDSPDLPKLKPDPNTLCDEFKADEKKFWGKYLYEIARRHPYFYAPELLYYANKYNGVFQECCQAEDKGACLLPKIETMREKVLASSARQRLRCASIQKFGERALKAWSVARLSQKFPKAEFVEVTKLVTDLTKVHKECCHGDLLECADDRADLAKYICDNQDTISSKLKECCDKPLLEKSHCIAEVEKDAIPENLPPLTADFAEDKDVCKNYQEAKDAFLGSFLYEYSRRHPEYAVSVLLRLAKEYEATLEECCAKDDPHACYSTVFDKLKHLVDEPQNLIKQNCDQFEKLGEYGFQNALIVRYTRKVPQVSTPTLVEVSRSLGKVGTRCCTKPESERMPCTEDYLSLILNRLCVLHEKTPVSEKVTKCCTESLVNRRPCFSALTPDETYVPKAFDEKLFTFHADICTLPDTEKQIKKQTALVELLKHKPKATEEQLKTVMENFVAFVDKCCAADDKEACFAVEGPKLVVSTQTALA
Procedure: FIG. 4 is a graph illustrating direct binding of intact IgGs (8A10 and 3C6) of the invention to a BSA-paclitaxel antigen on an ELISA.
Antibody affinity. 50 μL of BSA-paclitaxel antigen at a concentration of 3.5 μg/mL in 1× PBS was bound to a plate and incubated at 4° C. overnight. The plate was washed four ties with PBS/0.05% Tween 20. The plate was blocked for 2 hours with 1% BSA in PBS/0.05% Tween 20 at room temperature. The plate was washed four ties with PBS/0.05% Tween 20. 50 μL of antibody sample (8A10 and 3C6) was bound (start at 300 nM and titer down by 3s). The plate was washed four times with PBS/0.05% Tween 20. 50 μL of goat anti mIgG horseradish peroxidase (1:5000 dilution) was bound and then 50 μL of substrate solution TMB was added and the color allowed to develop. The reaction was stopped with 50 μL 1M HCl and the optical density was read at 450 nm.

BSA-paclitaxel (BSA-Ag) = BSA-paclitaxel (BSA-Ag) (Bos taurus, UniProt P02769); assay: Biacore 3000 SPR kinetic analysis, antigen on the chip; type: binding; conditions: for Dissociation rate constant (kd) / ka: 25° C.
Sequence of BSA-paclitaxel (BSA-Ag) (P02769 25-607): as above
Procedure: In this example, a method for determining antibody properties is described. The methods were carried out by Precision Antibody, Inc. (Columbia, Md.) using a Biacore Assay.
Binding experiments were performed on a Biacore 3000 instrument (GE, Pittsburgh, Pa.) at 25° C. Approximately 13,000 RU of anti-BSA ab (Life Technologies, A11133, lot 1637270) was directly immobilized on flow cell 2 of CM5 chip by amine coupling (EDC/NHS). 110-120 RU of BSA-paclitaxel (BSA-Ag) was captured. Flow cell 1 was treated the same way but without the ligand and used as a blank surface for reference subtraction. The unoccupied sites were blocked with 1 M ethanol amine. Analytes Ab 1 (8A10) and Ab2 (3C6) were flowed over the chip at variable concentrations. Binding of antigen to the antibodies was monitored in real time to obtain on (ka) and off (kd) rates. The equilibrium constant (KD) was calculated from the observed ka and kd.
Full kinetic analysis was performed using analyte concentrations as indicated with 2-fold serial dilutions. The starting concentration was 200 nM, followed by 100, 50, 25, 12.5, and 0 nM. The 100 nM concentration was run in duplicates to confirm the reproducibility of the assay.
The assay buffer was 10 mM HEPES buffer (pH 7.4), 150 mM NaCl, 3 mM EDTA, 0.05% P20 (polyoxyethylenesorbitan). The regeneration buffer was 10 mM Glycine buffer (pH 2.0). The conjugation buffer was 10 mM sodium acetate buffer (pH 5.0). The flow rate used for capturing the ligand was 1 μL/min. The flow rate for kinetics analysis was 50 μL/min.
Chi square (χ^2) analysis was carried out between the actual sensorgram and the sensorgram generated from the BlAnalysis software to determine the accuracy of the analysis. A χ^2 value within 1-2 is considered significant (accurate) and below 1 is highly significant (highly accurate).

BSA-paclitaxel [4] = biological target: T1, BSA-paclitaxel (Bos taurus, UniProt P02769); assay: Biacore 3000 SPR, antibody on the chip; type: binding; conditions: Biacore 3000, antibody on the chip (3C6: single point)
T1 sequence (P02769 25-607): as above

BSA-paclitaxel [5] = biological target: T1, BSA-paclitaxel; assay: Biacore T-200 SPR, antibody on the chip; type: binding; conditions: Biacore T-200, antibody on the chip
[6] = BSA-Ag (110RU) ligand, full kinetic analysis
[7] = BSA-Ag (110RU) ligand, calculated from ka and kd
[8] = Biacore 3000, antigen on the chip

| Molecule | IC50 [1] [nM] | IC50 [2] [nM] | IC50 [3] [nM] | further results |
| --- | --- | --- | --- | --- |
| C/C=C(\C)C(=O)N[C@@H](c1ccccc1)[C@@H](O)C(=O)O[C@H]1C[C@@]2(O)[C@@H](OC(=O)c3ccccc3)[C@@H]3[C@]4(OC(C)=O)CO[C@@H]4C[C@H](O)[C@@]3(C)C(=O)[C@H](OC(C)=O)C(=C1C)C2(C)C [cephalomannine] | 220 | > 325 | 8 | – |
| CC(=O)O[C@H]1C(=O)[C@@]2(C)[C@H]([C@H](OC(=O)c3ccccc3)[C@]3(O)C[C@H](OC(=O)[C@H](O)[C@@H](NC(=O)c4ccccc4)c4ccccc4)C(C)=C1C3(C)C)[C@]1(OC(C)=O)CO[C@@H]1C[C@@H]2O [paclitaxel (TAXOL ®), paclitaxel] | 10 | > 316 | 7 | – |
| CC(=O)O[C@H]1C(=O)[C@@]2(C)[C@H]([C@H](OC(=O)c3ccccc3)[C@]3(O)C[C@H](OC(=O)[C@H](O)[C@@H](NC(=O)c4ccccc4)c4ccccc4)C(C)=C1C3(C)C)[C@]1(OC(C)=O)CO[C@@H]1C[C@@H]2O [7-epi-taxol] | 80 | > 316 | 50 | – |
| CC(=O)OC[C@@]1(O)[C@H]2[C@H](OC(=O)c3ccccc3)[C@]3(O)C[C@H](OC(=O)[C@H](O)[C@@H](NC(=O)c4ccccc4)c4ccccc4)C(C)=C([C@@H](OC(C)=O)C(=O)[C@]2(C)[C@@H](O)C[C@@H]1O)C3(C)C [20-acetoxy-4-deacetyl-5-epi-20,O-secotaxol] | > 310 | > 310 | > 293 | – |
| CC(=O)O[C@@]12CO[C@@H]1C[C@H](O)[C@@]1(C)C(=O)[C@H](O)C3=C(C)[C@@H](O)C[C@@](O)([C@@H](OC(=O)c4ccccc4)[C@H]21)C3(C)C [10-deacetylbaccatin III] | > 551 | 230 | 21 | – |
| CC(=O)O[C@@]12CO[C@@H]1C[C@H](O)[C@@]1(C)C(=O)[C@H](O)C3=C(C)[C@@H](OC(=O)[C@H](O)[C@@H](NC(=O)c4ccccc4)c4ccccc4)C[C@@](O)([C@@H](OC(=O)c4ccccc4)[C@H]21)C3(C)C [7-epi-10-deacetyltaxol] | 25 | > 333 | 15 | – |
| CC(=O)O[C@@]12CO[C@@H]1C[C@H](O)[C@@]1(C)C(=O)[C@H](O)C3=C(C)[C@@H](OC(=O)[C@H](O)[C@@H](NC(=O)c4ccccc4)c4ccccc4)C[C@@](O)([C@@H](OC(=O)c4ccccc4)[C@H]21)C3(C)C [10-deacetyltaxol] | 15 | > 333 | 10 | – |
| CC(=O)O[C@H]1C(=O)[C@@]2(C)[C@H]([C@H](OC(=O)c3ccc(C(F)(F)F)cc3)[C@]3(O)C[C@H](OC(=O)[C@H](O)[C@@H](NC(=O)c4ccccc4)c4ccccc4)C(C)=C1C3(C)C)[C@]1(OC(C)=O)CO[C@@H]1C[C@@H]2O [2-debenzoyl-2-(p-trifluoromethylbenzoyl)taxol] | > 293 | > 293 | > 293 | – |
| CC(=O)O[C@@]12CO[C@@H]1C[C@@H](O)[C@@]1(C)C(=O)[C@H](O)C3=C(C)[C@@H](O)C[C@@](O)([C@@H](OC(=O)c4ccccc4)[C@H]21)C3(C)C [7-epi-10-deacetylbaccatin III] | > 469 | 150 | 27 | – |
| CC(=O)O[C@H]1C(=O)[C@]2(C)[C@H](O)C[C@H]3OC[C@@]3(OC(C)=O)[C@H]2[C@H](OC(=O)c2ccccc2)[C@]2(O)C[C@H](O)C(C)=C1C2(C)C [baccatin V] | > 460 | 10 | 10 | – |
| CC(=O)O[C@@]12CO[C@@H]1C[C@H](O[C@@H]1OC[C@@H](O)[C@H](O)[C@H]1O)[C@@]1(C)C(=O)[C@H](O)C3=C(C)[C@@H](OC(=O)[C@H](O)[C@@H](NC(=O)c4ccccc4)c4ccccc4)C[C@@](O)([C@@H](OC(=O)c4ccccc4)[C@H]21)C3(C)C [7-xylosyl-10-deacetyltaxol] | 30 | > 286 | 17 | – |
| CC(=O)O[C@H]1C(=O)[C@@]2(C)[C@H]([C@H](OC(=O)c3ccccc3)[C@]3(O)C[C@H](O)C(C)=C1C3(C)C)[C@]1(OC(C)=O)CO[C@@H]1C[C@@H]2O [baccatin III] | > 511 | 10 | 12 | – |
| 3C6 (antibody, V domains shown) VH: EVQLQESGPSLVKPSQTLSLTCSVTGDSITSGYWNWIRKFPGNRLEYMGYISYSGSTYYNPSLKSRISITRDTSKNQYYLHLTSVTTEDTATYYCAQGDGAYWGQGTTLTVSS VL: DVVMTQTPLSLPVSLGDQASISCRSRQSLVHSNGNTYLHWYLQKPGQSPKLLIYKVSNRFSGVPDRFSGSGSGTEFTLEISRVEAEDLGVYFCSQSTHVPPTFGGGTKLEIK | – | – | – | Kd (BSA-paclitaxel antigen): ~10 nM; Dissociation rate constant (kd) (BSA-paclitaxel (BSA-Ag); [6]): 0.000967 s⁻¹; ka (BSA-paclitaxel (BSA-Ag); [6]): 20500 M⁻¹ s⁻¹; Kd (BSA-paclitaxel (BSA-Ag); [7]): 47.2 nM; KA (BSA-paclitaxel (BSA-Ag); [6]): 2.12e+07 M⁻¹; Rmax (BSA-paclitaxel (BSA-Ag); [6]): 15.6; Kd (BSA-paclitaxel (BSA-Ag); [8]): 47 nM; Off-rate (BSA-paclitaxel (BSA-Ag); [8]): 9.7 × 10^−4; On-rate (BSA-paclitaxel (BSA-Ag); [8]): 2.1 × 10^4; Rmax (BSA-paclitaxel (BSA-Ag); [8]): 15.6; Kd (BSA-paclitaxel [4]): 10 nM; Off-rate (BSA-paclitaxel [4]): 2.9 × 10^−4; On-rate (BSA-paclitaxel [4]): 2.8 × 10^4; Rmax (BSA-paclitaxel [4]): 54.4; Kd (BSA-paclitaxel [5]): 12 nM; Off-rate (BSA-paclitaxel [5]): 2.2 × 10^−4; On-rate (BSA-paclitaxel [5]): 1.8 × 10^4; Rmax (BSA-paclitaxel [5]): 112 |
| 8A10: anti-taxane IgG2a mouse monoclonal antibody; variable regions SEQ ID NOS: 2 and 4 (antibody, V domains shown, mouse IgG2a constant regions) VL: DIVMTQSQKFMSITLGERVSITCKPSQNVGSAVTWWQQKPGQSPKLLIYSASNRYTGVPDRFTGSGSGTDFTLTISNVQSEDLADYFCQQYSSYPYTFGGGTKLEIKR VH: EVQLQQSGPELVKPGASVKISCKASGYTFTDSTMNWVKQSHGKSLEWIGEIDPNNGGTNYNQKFKGKATLTVDKSSSTAYMELRSLTSEDSAVYYCARGVWGQGTTLTVSS | – | – | – | Kd (BSA-paclitaxel antigen): ~10 nM; Dissociation rate constant (kd) (BSA-paclitaxel (BSA-Ag); [6]): 0.000304 s⁻¹; ka (BSA-paclitaxel (BSA-Ag); [6]): 470000 M⁻¹ s⁻¹; Kd (BSA-paclitaxel (BSA-Ag); [7]): 0.645 nM; KA (BSA-paclitaxel (BSA-Ag); [6]): 1.55e+09 M⁻¹; Rmax (BSA-paclitaxel (BSA-Ag); [6]): 4.01; Kd (BSA-paclitaxel (BSA-Ag); [8]): 0.65 nM; Off-rate (BSA-paclitaxel (BSA-Ag); [8]): 3.0 × 10^−4; On-rate (BSA-paclitaxel (BSA-Ag); [8]): 4.7 × 10^5; Rmax (BSA-paclitaxel (BSA-Ag); [8]): 4.0; Kd (BSA-paclitaxel [4]): 1.3 nM; Off-rate (BSA-paclitaxel [4]): 2.0 × 10^−3; On-rate (BSA-paclitaxel [4]): 1.6 × 10^6; Rmax (BSA-paclitaxel [4]): 3.6; Kd (BSA-paclitaxel [5]): 3.6 nM; Off-rate (BSA-paclitaxel [5]): 8.7 × 10^−4; On-rate (BSA-paclitaxel [5]): 2.4 × 10^5; Rmax (BSA-paclitaxel [5]): 8.6 |
